Measured values: patent publication US10718778B2, “Compositions and methods for detecting protein sulfenylation” (THE REGENTS OF THE UNIVERSITY OF MICHIGAN, priority 2014, dated 2020)

Tests used:
live HEK293T cells = assay: labeling of live HEK293T cells
B-cell hybridomas = assay: ratiometric imaging of sulfenylation in live cells by TIRF microscopy; type: cell-based
Protocol: Next, whether DiNap-1F could be used for ratiometric imaging sulfenylation in live cells by Total Internal Reflectance Fluorescence (TIRF) microscopy was tested.

With Nc1ccc2c3c(cccc13)C(=O)C(F)=C2O [DiNap-1F] the cell permeability (live HEK293T cells; live mammalian cells) was “validating cell permeability”, the “labeling of live mammalian cells” value (live HEK293T cells; time and concentration dependence) was “labeled efficiently” and the “excitation ratio change over time” value (B-cell hybridomas) was “clearly elicited a robust excitation ratio change over time”.
